Laboratory results taken from ChEMBL document CHEMBL1158838, “Immunosuppressive iridoids from the fruits of Gardenia jasminoides” (J Nat Prod, 2005).
The source made the active and inactive calls. The rule behind the calls is not given here.

Assays:
T-cell [1] = assay: Immunosuppressive activity against human peripheral blood T cells assessed as inhibition of PMA and anti-CD28 monoclonal antibody-costimulated IL2 secretion at 50 ug/ml by ELISA; assay type: functional, cell-based
T-cell [2] = assay: Immunosuppressive activity against human peripheral blood T cells assessed as inhibition of PMA and anti-CD28 monoclonal antibody-costimulated IL2 secretion at 100 ug/ml by ELISA; assay type: functional, cell-based

| SMILES | Activity (T-cell [1]) | Activity (T-cell [2]) |
| --- | --- | --- |
| C[C@]1(O)C[C@@H](O)[C@@H]2C(C(=O)O)=CO[C@@H](O[C@@H]3O[C@H](CO)[C@@H](O)[C@H](O)[C@H]3O)[C@@H]21 | Active | Active |
| COC(=O)C1=CO[C@@H](O[C@@H]2O[C@H](CO[C@@H]3O[C@H](CO)[C@@H](O)[C@H](O)[C@H]3O)[C@@H](O)[C@H](O)[C@H]2O)[C@@H]2C(CO)=CC[C@H]12 |  | Active |
| COC(=O)C1=CO[C@@H](O[C@@H]2O[C@H](CO)[C@@H](O)[C@H](O)[C@H]2O)[C@@H]2C(CO)=C[C@H](O)[C@H]12 | Active | Active |
| COC(=O)C1=CO[C@@H](O[C@@H]2O[C@H](CO)[C@@H](O)[C@H](O)[C@H]2O)[C@@H]2C(CO)=C[C@@H](O)[C@H]12 |  | Active |
| C[C@]1(O)C[C@H](O)[C@@H]2C(C=O)=CO[C@@H](O[C@@H]3O[C@H](CO)[C@@H](O)[C@H](O)[C@H]3O)[C@@H]21 | Active | Active |
| COC(=O)C1=CO[C@@H](O[C@@H]2O[C@H](CO)[C@@H](O)[C@H](O)[C@H]2O)[C@@H]2C(CO)=CC[C@H]12 | Active | Active |
